Entries after “also recorded” stand apart in the source; their conditions may differ. Counter-ions that a name gives are not always drawn. Like-named read-outs stand apart in the source and are kept apart here. Numbered stars: 1 amine (or outer) side, 2 acyl side, 3 side chain; on linkers, the order of the positions; unused ones are H or OH. Square brackets hold non-standard residues; d marks the D form. Peptide text beside a SMILES is read from it. * marks the point of attachment. Sta = CC(C)C[C@H](N)[C@@H](O)CC(=O)O; Isovaleryl = CC(C)CC(=O)*; Cbz = O=C(OCc1ccccc1)*; CO = O=C([*:1])[*:2]; CH2Cl = ClC*
How the values were obtained:
recombinant SmPOP = recombinant SmPOP (Schistosoma mansoni, UniProt A0A5K4EZK1); assay: biochemical; assay type: biochemical
human POP (HsPOP) = target: T1, human POP (HsPOP) (Homo sapiens, UniProt P48147); assay: biochemical
T1 sequence (P48147 1-710): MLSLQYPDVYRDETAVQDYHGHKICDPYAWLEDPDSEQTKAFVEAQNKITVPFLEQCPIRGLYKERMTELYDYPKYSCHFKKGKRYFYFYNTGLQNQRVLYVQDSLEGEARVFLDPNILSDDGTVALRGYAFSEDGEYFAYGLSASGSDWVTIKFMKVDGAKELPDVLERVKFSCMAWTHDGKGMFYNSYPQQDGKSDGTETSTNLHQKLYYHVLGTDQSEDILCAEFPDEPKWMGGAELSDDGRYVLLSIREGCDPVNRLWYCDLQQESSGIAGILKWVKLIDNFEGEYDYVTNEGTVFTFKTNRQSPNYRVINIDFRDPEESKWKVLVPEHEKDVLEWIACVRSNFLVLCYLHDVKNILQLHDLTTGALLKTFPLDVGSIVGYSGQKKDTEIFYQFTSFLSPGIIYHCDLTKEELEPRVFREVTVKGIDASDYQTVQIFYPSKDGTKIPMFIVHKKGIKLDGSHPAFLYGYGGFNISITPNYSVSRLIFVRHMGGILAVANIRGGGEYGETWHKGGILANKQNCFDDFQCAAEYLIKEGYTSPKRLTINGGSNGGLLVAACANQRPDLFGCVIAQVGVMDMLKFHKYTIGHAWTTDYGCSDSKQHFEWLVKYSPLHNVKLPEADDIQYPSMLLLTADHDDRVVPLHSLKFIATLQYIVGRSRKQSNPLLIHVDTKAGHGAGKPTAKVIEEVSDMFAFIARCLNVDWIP

[1] = tested on: adult schistosomes (cleavage of angiotensin I and bradykinin); assay: Hydrolysis of peptide hormones by cultured schistosomes (MALDI-TOF); assay type: cell-based, Schistosoma mansoni; details: live adults in culture; 16 h; mass spectrometry
Method: Five adult schistosome pairs were placed into clear, 24-well, flat-bottom plates (Costar) containing 500 μL Basch Medium […] [28], supplemented with 2.5% FBS, 100 units/mL penicillin and 100 μg/mL streptomycin. Human angiotensin I or bradykinin in 5 μL water was added to a final concentration of 100 μM and the incubation continued for 16 h at 37°C under a 5% CO2 atmosphere. In control experiments, the peptides were cultivated in the same system in the absence of schistosomes. After incubation, the samples were ZipTiped and the resulting fragments were analyzed using MALDI-TOF performed on an UltrafleXtreme (Bruker Daltonik) operated in reflectron mode with an acceleration voltage of 25 kV and a pulsed ion extraction of 120 ns. Desorption and ionization were achieved using a Smartbeam II laser. α-Cyano-4-hydroxycinnamic acid was used as a matrix. The data were acquired from m/z 220 to 3700 and analyzed with the FlexAnalysis 3.3 software (Bruker Daltonik). The mass spectra were externally calibrated using a Peptide Calibration Standard I (Bruker Daltonik) and averaged from 3000 laser shots.

[2] = tested on: SmPOP activity of live NTS and adult schistosomes; assay: Fluorescence SmPOP activity assay with cultured schistosomes; assay type: cell-based, Schistosoma mansoni; details: 1 μM inhibitor; NTS or adult worms in culture
Method: Adult worms (3 pairs) or approximately 150 NTS were incubated at 37°C and 5% CO2 for 2 days in 200 μL of Basch Medium 169 containing 5% FBS, 100 units/mL of penicillin and 100 μg/mL using black clear bottomed 96-well microplates (Costar). After incubation, half of the medium (100 μl) was transferred to an empty well leaving the parasites in the remaining half. Then SmPOP activity was measured in both wells upon the addition of 20 μL of Z-Gly-Pro-AMC (prepared as a 250 μM stock in Basch Medium 169) and in the presence or absence of 1 μM of the POP inhibitor, Z-Ala-Pro-CMK. Controls contained medium alone.

[3] = tested on: newly transformed schistosomula (NTS); assay: Parasite assay and phenotype scoring with NTS in culture; assay type: cell-based, Schistosoma mansoni; details: inhibitors at 10 μM and 1 μM, up to 4 days, grade I most severe
Method: NTS (200–300 parasites) were incubated in 200 μL of Basch Medium 169 and supplements, as described above. Inhibitors were added at final concentrations of 1 or 10 μM (0.5% DMSO final) and the incubations continued for 4 days. Grading of phenotypic responses arising as a function of time and concentration was modified after Jilkova et al.: Grade I, dead NTS by 2 days of culture at 10 μM and dying/dead NTS by 3 days at 1 μM. Grade II, dead NTS by 3 days at 10 μM and round/dark/dying by 3 days at 1 μM; Grade III, round/dark by 3 days at 1 and 10 μM concentrations (S1 Fig). ‘Dead’ was adjudicated as the loss of normal shape and the lack of movement often accompanied by obvious internal disruptions. ‘Dying’ was similar to death except that movement was detectable. Otherwise, the terms ‘round/dark’ were used to indicate less severe but obvious changes in the parasites relative to DMSO controls.

Molecule: CC(=O)N[C@@H](CC(C)C)C(=O)N[C@@H](CC(C)C)C(=O)N[C@H](C=O)CCCNC(=N)N [Leupeptin]
- inhibition at 20 µM (recombinant SmPOP): 2.3 ± 1.2%

Molecule: CC(C)C[C@H](NC(=O)[C@@H](O)[C@H](N)Cc1ccccc1)C(=O)O [Bestatin]
- inhibition at 1 µM (recombinant SmPOP; read-out: Inhibition (%)): 2.3 ± 2.1%

Molecule: O=C[C@@H]1CCCN1C(=O)[C@H](Cc1ccc(O)cc1)NC(=O)OCc1ccccc1 [Z-Tyr-Pro-CHO] (Cbz-Tyr-Pro-aldehyde)
- IC50 (human POP (HsPOP); read-out: IC50 (μM) HsPOP): 11.4 ± 0.7 µM
- IC50 (recombinant SmPOP; read-out: IC50 (μM) SmPOP): 4.4 ± 0.4 µM

Molecule: C[C@H](NC(=O)OCc1ccccc1)C(=O)N1CCC[C@H]1C=O [Z-Ala-Pro-CHO] (Cbz-Ala-Pro-aldehyde)
- IC50 (human POP (HsPOP); read-out: IC50 (μM) HsPOP): 6.1 ± 0.3 µM
- IC50 (recombinant SmPOP; read-out: IC50 (μM) SmPOP): 3.1 ± 0.2 µM

Molecule: CC(C)CC(=O)N[C@H](C(=O)N[C@H](C(=O)N[C@@H](CC(C)C)[C@@H](O)CC(=O)N[C@@H](C)C(=O)N[C@@H](CC(C)C)[C@@H](O)CC(=O)O)C(C)C)C(C)C [Pepstatin A] (Isovaleryl-VV[Sta]A[Sta]-OH)
- inhibition at 1 µM (recombinant SmPOP): 7.3 ± 3.5%

Molecule: O=C(O)CN(CCN(CC(=O)O)CC(=O)O)CC(=O)O [EDTA]
- Inhibition (%) (recombinant SmPOP; 1000 µM): 3.8±2.3%

Molecule: Cc1ccc(S(=O)(=O)N[C@@H](CCCCN)C(=O)CCl)cc1 [TLCK, Nα-Tosyl-L-lysine chloromethyl ketone]
- Inhibition of rSmPOP activity (in words) (recombinant SmPOP): Partial inhibition
- Inhibition (%) (recombinant SmPOP; 1 µM): 38.3±1.2%

Molecule: O=S(=O)(F)Cc1ccccc1 [PMSF, phenylmethylsulfonyl fluoride]
- Inhibition of rSmPOP activity (in words) (recombinant SmPOP): Partial inhibition
- Inhibition (%) (recombinant SmPOP; 1000 µM): 47.6±1.6%

Molecule: Cc1ccc(S(=O)(=O)N[C@@H](Cc2ccccc2)C(=O)CCl)cc1 [TPCK, N-p-Tosyl-L-phenylalanine chloromethyl ketone]
- Inhibition of rSmPOP activity (in words) (recombinant SmPOP): Partial inhibition
- Inhibition (%) (recombinant SmPOP; 1 µM): 67.2±6.2%

Molecule: CC(C)[C@H](NC(=O)[C@H](CCCNC(=N)N)NC(=O)N[C@@H](Cc1ccccc1)C(=O)O)C(=O)N[C@H](C=O)CCCNC(=N)N [Antipain] ({Phe-CO}-Arg-Val-Arg-aldehyde)
- inhibition at 20 µM (recombinant SmPOP): 32.4 ± 1.4%

Molecule: N=C(N)NCCC[C@H](NC(=O)OCc1ccccc1)C(=O)N1CCC[C@H]1C=O [Z-Arg-Pro-CHO] (Cbz-Arg-Pro-aldehyde)
- IC50 (human POP (HsPOP); read-out: IC50 (μM) HsPOP): 2.4 ± 0.2 µM
- IC50 (recombinant SmPOP; read-out: IC50 (μM) SmPOP): 1.3 ± 0.3 µM

Molecule: C[C@H](NC(=O)OCc1ccccc1)C(=O)N1CCC[C@H]1C(=O)CCl [Z-Ala-Pro-CMK, Z-Ala-Pro-chloromethyl ketone] (Cbz-Ala-Pro-CH2Cl)
- IC50 (human POP (HsPOP); read-out: IC50 (μM) HsPOP): 0.0168 ± 0.0046 µM
- Fragmentation of angiotensin I and bradykinin by adult parasites in the presence of inhibitor [1]: abolished
- Cleavage of Z-Gly-Pro-AMC by live NTS or adult schistosomes in the presence of inhibitor [2]: abolished
- Inhibition of rSmPOP activity (in words) (recombinant SmPOP): completely inhibited
- inhibition at 1 µM (recombinant SmPOP): 100 ± 3%
- IC50 (recombinant SmPOP; read-out: IC50 (μM) SmPOP): 0.0032 ± 0.0004 µM

Molecule: O=C[C@@H]1CCCN1C(=O)CNC(=O)OCc1ccccc1 [Z-Gly-Pro-CHO] (Cbz-Gly-Pro-aldehyde)
- IC50 (recombinant SmPOP; read-out: IC50 (μM) SmPOP): 6.1 ± 0.4 µM

Molecule: CC(C)C[C@H](NC(=O)[C@H]1O[C@@H]1C(=O)O)C(=O)NCCCCN=C(N)N (relative stereo) [E64, trans-Epoxysuccinyl-L-leucylamido(4-guanidino)butane]
- Inhibition (%) (recombinant SmPOP; 10 µM): 6.5±6.1%

Molecule: O=C([C@@H]1C[C@@H](O)CN1C(=O)CCCOc1ccccc1/C=C/c1ccccc1)N1CCSC1 [SUAM 14746]
- IC50 (human POP (HsPOP); read-out: IC50 human POP): 0.083 µM
- Severity of phenotype against parasite, Grade [3]: no effect
- IC50 (recombinant SmPOP; read-out: IC50 SmPOP): 0.092 µM

Molecule: O=C(O)[C@@H]1CCCN1C(=O)OCc1ccccc1 [Z-Pro-OH]
- Inhibition (%) (recombinant SmPOP; 100 µM): 41.1±1.8%

Molecule: O=C(O)[C@@H]1CCCN1C(=O)[C@@H]1CCCN1C(=O)OCc1ccccc1 [Z-Pro-Pro-OH] (Cbz-Pro-Pro-OH)
- Inhibition (%) (recombinant SmPOP; 100 µM): 37.6±2.1%

Molecule: O=c1oc(Cl)c(Cl)c2ccccc12 [3,4-dichloroisocoumarin]
- Inhibition of rSmPOP activity (in words) (recombinant SmPOP): Partial inhibition
- inhibition at 100 µM (recombinant SmPOP): 77.3 ± 0.6%

Molecule: O=C[C@@H]1CCCN1C(=O)[C@@H]1CCCN1C(=O)OCc1ccccc1 [Z-Pro-Pro-CHO, benzyloxycarbonyl-L-prolyl-L-prolinal] (Cbz-Pro-Pro-aldehyde)
- Severity of phenotype against parasite, Grade [3]: no effect
- Inhibition of rSmPOP activity (in words) (recombinant SmPOP): completely inhibited
- IC50 (recombinant SmPOP; read-out: IC50 (μM) SmPOP): 0.16 ± 0.03 µM
- inhibition at 1 µM (recombinant SmPOP; read-out: Inhibition (%)): 100 ± 1%

Molecule: Cl.NCCc1ccc(S(=O)(=O)F)cc1 [Pefabloc SC]
- Inhibition of rSmPOP activity (in words) (recombinant SmPOP): Partial inhibition; also recorded: only weakly
- Inhibition (%) (recombinant SmPOP; 1000 µM): 12.0±3.1%

Molecule: N=C(N)c1ccccc1 [Benzamidine]
- Inhibition of rSmPOP activity (in words) (recombinant SmPOP): only weakly
- inhibition at 10 µM (recombinant SmPOP): 3.7 ± 1.1%

Molecule: NCCCC[C@H](NC(=O)OCc1ccccc1)C(=O)N1CCC[C@H]1C=O [Z-Lys-Pro-CHO] (Cbz-Lys-Pro-aldehyde)
- IC50 (human POP (HsPOP); read-out: IC50 (μM) HsPOP): 7.2 ± 0.6 µM
- Severity of phenotype against parasite, Grade [3]: I
- IC50 (recombinant SmPOP; read-out: IC50 (μM) SmPOP): 3 ± 0.6 µM

Molecule: N=C(N)NCCC[C@H](NC(=O)OCc1ccccc1)C(=O)N1CCC[C@H]1C(=O)CCl [Z-Arg-Pro-CMK] (Cbz-Arg-Pro-CH2Cl)
- IC50 (human POP (HsPOP); read-out: IC50 (μM) HsPOP): 0.0048 ± 0.0006 µM
- IC50 (recombinant SmPOP; read-out: IC50 (μM) SmPOP): 0.0029 ± 0.0001 µM

Molecule: CC(C)c1ccc(C(=O)c2cccs2)c(SCCCCCCCCN(C)C)n1 [Y-29794 oxalate, 2-[[8-(Dimethylamino)octyl]thio]-6-(1-methylethyl)-3-pyridinyl-2-thienylmethanone oxalate]
- IC50 (human POP (HsPOP); HsPOP, Z-Gly-Pro-AMC, pH 8.0, mean ± S.D., n=3, read-out: IC50 (μM) HsPOP): 0.49 ± 0.03 µM
- IC50 (recombinant SmPOP; read-out: IC50 (μM) SmPOP): 8.6 ± 0.4 µM

B1: STI: soybean trypsin inhibitor, protein inhibitor of serine peptidases (protein, UniProt P01070 25-205, looked up)
Trypsin inhibitor A: DFVLDNEGNPLENGGTYYILSDITAFGGIRAAPTGNERCPLTVVQSRNELDKGIGTIISSPYRIRFIAEGHPLSLKFDSFAVIMLCVGIPTEWSVVEDLPEGPAVKIGENKDAMDGWFRLERVSDDEFNNYKLVFCPQQAEDDKCGDIGISIDHDDGTRRLVVSKNKPLVVQFQKLDKESL
- Inhibition of rSmPOP activity (in words) (recombinant SmPOP): neither affected
- Inhibition (%) (recombinant SmPOP; 10 µM): 12.3±3.2%

From PMC4454677, “Prolyl Oligopeptidase from the Blood Fluke Schistosoma mansoni: From Functional Analysis to Anti-schistosomal Inhibitors” (PLoS Neglected Tropical Diseases, 2015)
